In patent US10189842B2 (Agency for Science, Technology and Research, priority 2013, dated 2019) one finds IC50 data, which are given here for 31 compounds.

Molecules are shown by their SMILES.

This experiment has as its system HEK293-STF3A cells. Kind of experiment: STF3A assay (luciferase reporter). The following applies: Homo sapiens, 24 h, 1 day of treatment. It counts as cell-based, Human. Summed up: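 HEK293 cells carrying the STF reporter and expressing Wnt3A, seeded 2×10^4 per well overnight, then treated 1 day with compound at final 50 μM to 1.5 nM. Luciferase activity read by luminescence after Steady-Glo reagent, 10 min at room temperature.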
Background: A reporter such as luciferase makes a cellular process visible.

For `Cc1cc2n(n1)CCCN2C(=O)CCC(=O)Nc1ccc(-c2cncc(C(F)(F)F)c2)cn1` [Compound 118, 4-(2-methyl-6,7-dihydropyrazolo[1,5-a]pyrimidin-4(5H)-yl)-4-oxo-N-(5′-(trifluoromethyl)-[3,3′-bipyridin]-6-yl)butanamide], the IC50 was < 100 nM.
For the compound `Cc1cc2n(n1)CCCN2C(=O)CCC(=O)Nc1cnc(-c2cccnc2)cn1` [Compound 52, 4-(2-methyl-6,7-dihydropyrazolo[1,5-a]pyrimidin-4(5H)-yl)-4-oxo-N-(5-(pyridin-3-yl)pyrazin-2-yl)butanamide], the IC50 was < 100 nM.
The result for `COc1cc2n(n1)CCCN2C(=O)CCC(=O)Nc1cc(-c2cccc(Cl)c2)no1` [Compound 135, N-(3-(3-chlorophenyl)isoxazol-5-yl)-4-(2-methoxy-6,7-dihydropyrazolo[1,5-a]pyrimidin-4(5H)-yl)-4-oxobutanamide] reads > 10000 nM; that for `Cc1cc2n(n1)CCCN2C(=O)CCC(=O)Nc1cc(-c2cccc(Br)c2)no1` [Compound 9, N-[3-(3-bromophenyl)-1,2-oxazol-5-yl]-4-{2-methyl-5H,6H,7H-pyrazolo[1,5-a]pyrimidin-4-yl}-4-oxobutanamide], < 1000 nM; that for `Cc1cc2n(n1)CCCN2C(=O)CCC(=O)Nc1cc(-c2ccccc2Cl)no1` [Compound 6, N-(3-(2-chlorophenyl)isoxazol-5-yl)-4-(2-methyl-6,7-dihydropyrazolo[1,5-a]pyrimidin-4(5H)-yl)-4-oxobutanamide], > 10000 nM.
Take `Cc1ccc(-c2ccc(NC(=O)CCC(=O)N3CCCn4nc(C)cc43)nn2)cn1` [Compound 107, 4-(2-methyl-6,7-dihydropyrazolo[1,5-a]pyrimidin-4(5H)-yl)-N-(6-(6-methylpyridin-3-yl)pyridazin-3-yl)-4-oxobutanamide]: the half-inhibitory concentration (IC50) was < 100 nM.
The result for `Cc1cc2n(n1)CC(C)CN2C(=O)CCC(=O)Nc1ccc(-c2cccnc2)nc1` (stereo not shown) [Compound 140, N-(2,3′-bipyridin-5-yl)-4-(2,6-dimethyl-6,7-dihydropyrazolo[1,5-a]pyrimidin-4(5H)-yl)-4-oxobutanamide] reads < 100 nM; that for `Cc1cccc(-c2ccc(NC(=O)CCC(=O)N3CCCn4nc(C)cc43)nc2)c1` [Compound 93, 4-(2-methyl-6,7-dihydropyrazolo[1,5-a]pyrimidin-4(5H)-yl)-4-oxo-N-(5-(m-tolyl)pyridin-2-yl)butanamide], < 100 nM.
The result for `Cc1ccnc(-c2ccc(NC(=O)CCC(=O)N3CCCn4nc(C)cc43)nc2)c1` [Compound 148, N-(4-methyl-2,3′-bipyridin-6′-yl)-4-(2-methyl-6,7-dihydropyrazolo[1,5-a]pyrimidin-4(5H)-yl)-4-oxobutanamide] reads < 100 nM; that for `Cc1cc2n(n1)CCCN2C(=O)CCC(=O)Nc1cc(-c2ccc(N)cc2)no1` [Compound 15, N-[3-(4-aminophenyl)-1,2-oxazol-5-yl]-4-{2-methyl-5H,6H,7H-pyrazolo[1,5-a]pyrimidin-4-yl}-4-oxobutanamide], > 10000 nM.
In the case of `Cc1cc2n(n1)CCCN2C(=O)CCC(=O)Nc1ccc(-c2cccc(N3CCOCC3)c2)cc1` [Compound 73, 4-(2-methyl-6,7-dihydropyrazolo[1,5-a]pyrimidin-4(5H)-yl)-N-(3′-morpholinobiphenyl-4-yl)-4-oxobutanamide], the IC50 was < 5000 nM.
The value for `Cc1ccc(-c2ccc(NC(=O)CCC(=O)N3CCCn4nc(C)cc43)cn2)cn1` [Compound 113, 4-(2-methyl-6,7-dihydropyrazolo[1,5-a]pyrimidin-4(5H)-yl)-N-(6′-methyl-[2,3′-bipyridin]-5-yl)-4-oxobutanamide] was < 100 nM.
The result for `Cc1cncc(-c2ccc(NC(=O)CCC(=O)N3CCCn4nc(C)cc43)nc2)n1` [Compound 128, 4-(2-methyl-6,7-dihydropyrazolo[1,5-a]pyrimidin-4(5H)-yl)-N-(5-(6-methylpyrazin-2-yl)pyridin-2-yl)-4-oxobutanamide] reads < 100 nM; that for `Cc1cc2n(n1)CCCN2C(=O)CCC(=O)Nc1ccc(-c2cncnc2)cc1` [Compound 39, 4-{2-methyl-5H,6H,7H-pyrazolo[1,5-a]pyrimidin-4-yl}-4-oxo-N-[4-(pyrimidin-5-yl)phenyl]butanamide], < 100 nM; that for `Cc1cc2n(n1)CCCN2C(=O)CCC(=O)Nc1cc(-c2cccc(Cl)c2)on1` [Compound 23, N-[5-(3-chlorophenyl)-1,2-oxazol-3-yl]-4-{2-methyl-5H,6H,7H-pyrazolo[1,5-a]pyrimidin-4-yl}-4-oxobutanamide], < 1000 nM.
In the case of `Cc1cc2n(n1)CCCN2C(=O)CC(C)C(=O)Nc1ccc(-c2cccnc2)cn1` (stereo not shown) [Compound 147, N-([3,3′-bipyridin]-6-yl)-2-methyl-4-(2-methyl-6,7-dihydropyrazolo[1,5-a]pyrimidin-4(5H)-yl)-4-oxobutanamide], the 50% inhibitory concentration (IC50) was < 100 nM.
The result for `Cc1cc2n(n1)CCCN2C(=O)CCC(=O)NC1CCC(c2ccccc2)CC1` (stereo not shown) [Compound 80, 4-(2-methyl-6,7-dihydropyrazolo[1,5-a]pyrimidin-4(5H)-yl)-4-oxo-N-(4-phenylcyclohexyl)butanamide] reads > 10000 nM; that for `Cc1cc2n(n1)CCCN2C(=O)CCC(=O)Nc1ccc(-c2ccc(F)cc2)nc1` [Compound 87, N-(6-(4-fluorophenyl)pyridin-3-yl)-4-(2-methyl-6,7-dihydropyrazolo[1,5-a]pyrimidin-4(5H)-yl)-4-oxobutanamide], < 1000 nM; that for `Cc1cccc(-c2ccc(NC(=O)CCC(=O)N3CCCn4nc(C)cc43)nn2)c1` [Compound 99, 4-(2-methyl-6,7-dihydropyrazolo[1,5-a]pyrimidin-4(5H)-yl)-4-oxo-N-(6-(m-tolyl)pyridazin-3-yl)butanamide], < 100 nM.
On to `Cc1cc2n(n1)CCCN2C(=O)CCC(=O)Nc1ccc(-c2csc(C)n2)cc1` [Compound 28, 4-(2-methyl-6,7-dihydropyrazolo[1,5-a]pyrimidin-4(5H)-yl)-N-(4-(2-methylthiazol-4-yl)phenyl)-4-oxobutanamide], for which the IC50 was < 100 nM.
The value for `O=C(CCC(=O)N1CCCn2nc(C(F)(F)F)cc21)Nc1cc(-c2cccc(Cl)c2)no1` [Compound 134, N-(3-(3-chlorophenyl)isoxazol-5-yl)-4-oxo-4-(2-(trifluoromethyl)-6,7-dihydropyrazolo[1,5-a]pyrimidin-4(5H)-yl)butanamide] was < 100 nM; that for `Cc1cccc(-c2ccc(NC(=O)CCC(=O)N3CCCn4nc(C)cc43)cc2)c1` [Compound 59, 4-(2-methyl-6,7-dihydropyrazolo[1,5-a]pyrimidin-4(5H)-yl)-N-(3′-methyl-[1,1′-biphenyl]-4-yl)-4-oxobutanamide] was < 100 nM.
The value for `Cc1cc2n(n1)CCCN2C(=O)CCC(=O)Nc1ccc(-c2ccccc2)nn1` [Compound 45, 4-(2-methyl-6,7-dihydropyrazolo[1,5-a]pyrimidin-4(5H)-yl)-4-oxo-N-(6-phenylpyridazin-3-yl)butanamide] was < 100 nM.
The value for `Cc1cc2n(n1)CCCN2C(=O)CCC(=O)Nc1ccc(-c2cncc(Cl)c2)cn1` [Compound 114, N-(5′-chloro-[3,3′-bipyridin]-6-yl)-4-(2-methyl-6,7-dihydropyrazolo[1,5-a]pyrimidin-4(5H)-yl)-4-oxobutanamide] was < 100 nM; that for `Cc1cc2n(n1)CCCN2C(=O)CCC(=O)N(C)c1cc(-c2cccc(Cl)c2)no1` [Compound 130, N-(3-(3-chlorophenyl)isoxazol-5-yl)-N-methyl-4-(2-methyl-6,7-dihydropyrazolo[1,5-a]pyrimidin-4(5H)-yl)-4-oxobutanamide] was > 10000 nM.
Take `Cc1cc2n(n1)C[C@H](C)CN2C(=O)CCC(=O)Nc1ccc(-c2cccnc2)cn1` [Compound 170, N-(3,3′-bipyridin-6-yl)-4-(2,6-dimethyl-6,7-dihydropyrazolo[1,5-a]pyrimidin-4(5H)-yl)-4-oxobutanamide]: the IC50 was < 100 nM.
As to `COc1cccc(-c2ccc(NC(=O)CCC(=O)N3CCCn4nc(C)cc43)cc2)c1` [Compound 62, N-(3′-methoxy-[1,1′-biphenyl]-4-yl)-4-(2-methyl-6,7-dihydropyrazolo[1,5-a]pyrimidin-4(5H)-yl)-4-oxobutanamide], the half-maximal inhibitory concentration (IC50) is < 100 nM.
The value for `Cc1cncc(-c2ncc(NC(=O)CCC(=O)N3CCCn4nc(C)cc43)cc2C)c1` [Compound 168, N-(3,5′-dimethyl-[2,3′-bipyridin]-5-yl)-4-(2-methyl-6,7-dihydropyrazolo[1,5-a]pyrimidin-4(5H)-yl)-4-oxobutanamide] was < 1000 nM; that for `Cc1ccc(-c2ccc(NC(=O)CCC(=O)N3CCCn4nc(C)cc43)cc2)cc1` [Compound 60, 4-(2-methyl-6,7-dihydropyrazolo[1,5-a]pyrimidin-4(5H)-yl)-N-(4′-methyl-[1,1′-biphenyl]-4-yl)-4-oxobutanamide] was < 100 nM.
The result for `Cc1cc2n(n1)CCCN2C(=O)CC(C)C(=O)Nc1ccc(-c2cccnc2)nn1` (stereo not shown) [Compound 155] reads < 100 nM; that for `Cc1cc2n(n1)CCCN2C(=O)C(C)CC(=O)Nc1cc(-c2cccc(Cl)c2)no1` (stereo not shown) [Compound 132, N-(3-(3-chlorophenyl)isoxazol-5-yl)-3-methyl-4-(2-methyl-6,7-dihydropyrazolo[1,5-a]pyrimidin-4(5H)-yl)-4-oxobutanamide], > 10000 nM.

As usually defined, the IC50 is the concentration that inhibits the measured activity by half. High values mean weaker potency, low ones greater potency.
